Measurements: patent US7857804B2, “Use of Bcl inhibitors for the prevention of fibroproliferative reclosure of dilated blood vessels and other iatrogenic fibroproliferative disorders” (priority 2006, dated 2010)

Columns and labels:
[1] = system: cell line R1 (human cell line derived from carotid artery atherosclerotic lesion); test: MTT cell survival after fas ligation (CH11), cell line R1; type: cell-based
Experimental: (§1) Cells for study were derived from human carotid artery atherosclerotic lesions, by published methods. Additionally, cell lines were subcloned and tested for sensitivity to fas ligation. In the present studies, clonal lines with known resistance to fas ligation were used.
(§2) Induction of apoptosis was achieved by reduction of serum concentration from 10% to 1% FBS for 24 hours prior to adding an activating antibody to fas (CH11, Upstate Biotechnology) at a typical concentration of 50-500 ng/ml. Typically 24-48 hours after fas ligation by CH11, cell survival was determined by measuring metabolic activity by the MTT method.
However, in the presence of fas, the cells pretreated with BCLI underwent a high degree of apoptosis (70% cell death). […] Thus, the drug is neither toxic nor capable of inducing apoptosis alone at this concentration.
Referring to FIG. 1, A human cell line derived from carotid artery atherosclerotic lesion was plated at known density and then subgroups of 3 wells were treated with various drugs prior to exposure to fas ligation by the activating CH11 antibody (+fas). Pretreatment with flavopiridol (Flavo, 50 nM) or BCLI (Bcl-inh, 20 μM or 100 μM) was followed 24 hours later by addition of CH11 activating antibody to fas (50 ng/ml). After fas ligation, cell survival was evaluated 24 hours later by measuring the number of viable cells using the metabolic dye MTT, which is converted to a blue dye that absorbs at 570 nm. Values reflect the mean±s.e.m. (n=3 per group).

[2] = system: R1GFP (human atherosclerosis-derived cell line with known resistance to fas ligation); test: MTT cell survival after fas ligation (CH11), GFP-only expressing cell line; type: cell-based; conditions: for effect on cell survival in the absence of fas (drug alone): AA3 20 μg/ml, no CH11
Experimental: as §1, §2
In addition to the BCL-inhibitor, this sensitizing effect was also observed with AA. As above, a human atherosclerosis-derived cell line with known resistance to fas ligation was used for study. In this case, the cell line was stably infected with a retrovirus expressing either an irrelevant marker gene (green fluorescent protein, GFP) or the marker gene and Bcl-Xl. In the GFP-only expressing cell line (R1GFP), fas ligation (50 ng/ml CH11) in low serum (1% FBS) led to only 15% cell death (85% survival) (see FIG. 2).
(§3) Referring to FIG. 2, human atherosclerosis-derived cells were pretreated with the specified drugs for 24 prior to treatment with the activating fas antibody CH11 (50 ng/ml). […] The drugs used were AA (20 μg/ml), BCLI (20 μM), interferon-gamma (IFN, 50 U/ml), and SP600125 (SP, 20 μM). The upper panel reports the MTT optical density (absorbance at 570 nm) without (control) or with fas ligation (+fas) as the mean, with error bars indicating±standard error of measurement (s.e.m., n=3 per group). The lower panel expresses % survival based on the MTT values above (MTT+fas/MTT Control)×100.

[3] = system: R1 cells over-expressing Bcl-Xl (R1 bclXL); test: MTT cell survival after fas ligation (CH11), R1 cells over-expressing Bcl-Xl; type: cell-based, human; conditions: AA 20 μg/ml; BCLI 20 μM; IFN 50 U/ml; SP 20 μM; CH11 50 ng/ml
Experimental: as §2
In one example, to determine whether the effect of BCLI and AA was via interaction with their intended targets (Bcl-Xl and Bcl-2), the drugs were tested in R1 cells over-expressing Bcl-Xl (R1 bclXL).
as §3

Human lesion cells = test: MTT assay for sensitivity to fas-induced apoptosis in human lesion cells; type: cell-based; conditions: for death with fas ligation (sensitivity to apoptosis): 24 h, 20% death without drug
Experimental: as §1, §2
FIG. 3 depicts the effect of 2-methoxy-antimycin A3 (AA3) and gossypol on the sensitivity to apoptosis in human lesion cells. Human lesion cells were plated and treated as above for 24 hours with the specified concentrations of drug. Fas ligation was initiated with 50 ng/ml of activating antibody CH11 and 24 hours later the number of cell surviving was measured by their metabolism of MTT. Bars are mean±s.d. (n=4 per group). A reduction in MTT levels indicates cell death.
FIG. 4 depicts the effect of HA14-1 and 2,3-DCPE on sensitivity to fas-induced apoptosis. Human lesion cells were plated and treated as above for 24 hours with the specified concentrations […] of HA14-1 (H) or 2,3-DCPE (D). Fas ligation was initiated with 50 ng/ml of activating antibody CH11 and 24 hours later the number of cell surviving was measured by their metabolism of MTT. Bars are mean±s.d. (n=2 per group). A reduction in MTT levels indicates cell death.

Molecule: 2,9-dimethoxy-11,12-dihydrodibenzo[c,g][1,2]-diazocine 5,6-dioxide (A) and 5,5′-Dimethoxy-2,2′-dinitrosobenzyl (B) [BCLI]
- effect upon cell survival in the absence of the activating antibody to fas ([1]; 20 μM, no CH11): little or no effect
- effect on cell survival in the absence of fas ligation ([1]; 100 μM, no CH11): substantial effect on cell survival
- cell death (apoptosis) in the presence of fas ([1]; BCLI pretreatment 20 μM, 24 h, CH11 50 ng/ml, MTT 24 h later): 70%
- effect on cell survival in the absence of fas (drug alone) ([2]; BCLI 20 μM): slightly more apoptosis alone
- effectiveness in Bcl-Xl over-expressing cells compared with GFP control cells [3]: markedly less effective

Molecule: CCCC[C@H]1C(=O)O[C@H](C)[C@H](NC(=O)c2cccc(NC=O)c2OC)C(=O)O[C@@H](C)[C@@H]1OC(=O)CC(C)C [AA3, 2-methoxyantimycin A3]
- death with fas ligation (sensitivity to apoptosis) (Human lesion cells; 10 μg/ml, CH11 50 ng/ml): 80%
- death with fas ligation (sensitivity to apoptosis) (Human lesion cells; 20 μg/ml, CH11 50 ng/ml): 80%
- death in the absence of fas ligation (Human lesion cells; AA3 at higher concentrations (above 20 μg/ml), no fas ligation): induced death even in the absence of fas ligation
- apoptosis in the presence of fas ([2]; 24 hour pretreatment 20 μg/ml, CH11 50 ng/ml, 1% FBS): 70%
- effect on cell survival in the absence of fas (drug alone) ([2]; BCLI 20 μM): only a small effect on cell survival

Molecule: Cl.OCCNCCCOc1cccc(Cl)c1Cl [DCPE, 2,[[3-(2,3-dichlorophenoxy)propyl]amino]ethanol-HCl]
- fas-dependent sensitization to apoptosis (Human lesion cells; only at the highest tested dose of 100 μM, CH11 50 ng/ml): significant fas-dependent sensitization to apoptosis

Molecule: Cc1cc2c(C(C)C)c(O)c(O)c(C=O)c2c(O)c1-c1c(C)cc2c(C(C)C)c(O)c(O)c(C=O)c2c1O [Gossypol, 2,2′-bis(8-Formyl-1,6,7-trihydroxy-5-isopropyl-3-methylnaphthalene)]
- survival in the presence of fas (Human lesion cells; 2.5 μM, CH11 50 ng/ml, 80% survival without drug): 50%

Molecule: CCOC(=O)C1=C(N)Oc2ccc(Br)cc2C1C(C#N)C(=O)OCC (centres unmarked) [HA14-1, Ethyl-2-amino-6-bromo-4-(1-cyano-2-ethoxy-2-oxoethyl)-4H-chromene-3-carboxylate]
- fas-independent death-inducing effect (Human lesion cells; 25-100 μM): fas-independent death-inducing effect
- ability to sensitize cells to fas-induced apoptosis (Human lesion cells; HA14-1, all tested concentrations, CH11 50 ng/ml): did not demonstrate any ability to sensitize cell to apoptosis

Molecule: Antimycin A [AA]
- effectiveness in Bcl-Xl over-expressing cells compared with GFP control cells [3]: markedly less effective

Molecule: interferon-gamma: interferon-gamma, a known sensitizing agent
- sensitizing effect to fas ligation (in words) ([2]; BCLI 20 μM, interferon-gamma 50 U/ml, SP600125 20 μM, CH11 50 ng/ml): comparable effect
- effectiveness in Bcl-Xl over-expressing cells compared with GFP control cells [3]: less effective
